#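 The compound was tested at five concentrations on cells cultured in 96-well plates, with a 48-hour exposure period. GI50 = concentration required for 50% inhibition of growth. The concentration for full growth arrest is given as TGI.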
# Assays:
# Assay in all cases: NCI tumour cell line growth inhibition, 48 h
# SN12C renal = test system: SN12C renal
# HOP-62 NSCLC = test system: HOP-62 NSCLC
# NCI/ADR-RES ovarian = test system: NCI/ADR-RES ovarian
# IGROV1 ovarian = test system: IGROV1 ovarian
# NCI-H522 lung = test system: NCI-H522 lung
# UACC-62 melanoma = test system: UACC-62 melanoma
# NCI-H23 lung = test system: NCI-H23 lung
# CCRF-CEM leukemia = test system: CCRF-CEM leukemia
# SW-620 colon = test system: SW-620 colon
# NCI-H460 lung = test system: NCI-H460 lung
# MCF7 breast = test system: MCF7 breast
# CAKI-1 renal = test system: CAKI-1 renal
# HCT-15 colon = test system: HCT-15 colon
# SK-OV-3 ovarian = test system: SK-OV-3 ovarian
# UACC-257 melanoma = test system: UACC-257 melanoma
# MDA-MB-231 breast = test system: MDA-MB-231 breast
# LOX IMVI melanoma = test system: LOX IMVI melanoma
# SNB-75 CNS = test system: SNB-75 CNS
# MDA-MB-468 breast = test system: MDA-MB-468 breast
# SNB-19 CNS = test system: SNB-19 CNS
# SF-539 CNS = test system: SF-539 CNS
# TK-10 renal = test system: TK-10 renal
# OVCAR-4 ovarian = test system: OVCAR-4 ovarian
# 786-0 renal = test system: 786-0 renal
# HCT-116 colon = test system: HCT-116 colon
# SK-MEL-2 melanoma = test system: SK-MEL-2 melanoma
# MDA-MB-435 = test system: MDA-MB-435
# OVCAR-8 ovarian = test system: OVCAR-8 ovarian
# K-562 leukemia = test system: K-562 leukemia
# U251 CNS = test system: U251 CNS
# EKVX NSCLC = test system: EKVX NSCLC
# DU-145 prostate = test system: DU-145 prostate
# HOP-92 NSCLC = test system: HOP-92 NSCLC
# M14 melanoma = test system: M14 melanoma
# RXF 393 renal = test system: RXF 393 renal
# SK-MEL-28 melanoma = test system: SK-MEL-28 melanoma
# SK-MEL-5 melanoma = test system: SK-MEL-5 melanoma
# T-47D breast = test system: T-47D breast
# SF-268 CNS = test system: SF-268 CNS
# HS 578T breast = test system: HS 578T breast
# UO-31 renal = test system: UO-31 renal
# MOLT-4 leukemia = test system: MOLT-4 leukemia
# A549 NSCLC = test system: A549 NSCLC
# HL-60(TB) leukemia = test system: HL-60(TB) leukemia
# OVCAR-3 ovarian = test system: OVCAR-3 ovarian
# ACHN renal = test system: ACHN renal
# HCC-2998 colon = test system: HCC-2998 colon
# RPMI-8226 leukemia = test system: RPMI-8226 leukemia
# KM12 colon = test system: KM12 colon
# COLO 205 colon = test system: COLO 205 colon
# OVCAR-5 ovarian = test system: OVCAR-5 ovarian
# HT29 colon = test system: HT29 colon
# BT-549 breast = test system: BT-549 breast
# PC-3 prostate = test system: PC-3 prostate
# MALME-3M melanoma = test system: MALME-3M melanoma
# NCI-H226 lung = test system: NCI-H226 lung
# A498 renal = test system: A498 renal
# SF-295 CNS = test system: SF-295 CNS
structure (smiles),measurement,setting,value
Cn1cc(NC(=O)c2cc(NC(=O)c3ccc(C#Cc4ccccc4)cc3)cn2C)cc1C(=O)NCCCN1CCOCC1,GI50,SN12C renal,7.08 µM
same,TGI,SN12C renal,> 32.5 µM
same,GI50,HOP-62 NSCLC,18 µM
same,TGI,HOP-62 NSCLC,> 32.5 µM
same,GI50,NCI/ADR-RES ovarian,7.66 µM
same,TGI,NCI/ADR-RES ovarian,23.8 µM
same,GI50,IGROV1 ovarian,> 32.5 µM
same,TGI,IGROV1 ovarian,> 32.5 µM
same,GI50,NCI-H522 lung,8.72 µM
same,TGI,NCI-H522 lung,> 32.5 µM
same,GI50,UACC-62 melanoma,11 µM
same,TGI,UACC-62 melanoma,> 32.5 µM
same,GI50,NCI-H23 lung,14.3 µM
same,TGI,NCI-H23 lung,> 32.5 µM
same,GI50,CCRF-CEM leukemia,6.76 µM
same,TGI,CCRF-CEM leukemia,> 32.5 µM
same,GI50,SW-620 colon,9.25 µM
same,TGI,SW-620 colon,> 32.5 µM
same,GI50,NCI-H460 lung,10.1 µM
same,TGI,NCI-H460 lung,> 32.5 µM
same,GI50,MCF7 breast,6.15 µM
same,TGI,MCF7 breast,30.8 µM
same,GI50,CAKI-1 renal,17.5 µM
same,TGI,CAKI-1 renal,> 32.5 µM
same,GI50,HCT-15 colon,5.47 µM
same,TGI,HCT-15 colon,13.7 µM
same,GI50,SK-OV-3 ovarian,> 32.5 µM
same,TGI,SK-OV-3 ovarian,> 32.5 µM
same,GI50,UACC-257 melanoma,18.9 µM
same,TGI,UACC-257 melanoma,> 32.5 µM
same,GI50,MDA-MB-231 breast,10.3 µM
same,TGI,MDA-MB-231 breast,> 32.5 µM
same,GI50,LOX IMVI melanoma,4.94 µM
same,TGI,LOX IMVI melanoma,9.38 µM
same,GI50,SNB-75 CNS,6.71 µM
same,TGI,SNB-75 CNS,> 32.5 µM
same,GI50,MDA-MB-468 breast,7.75 µM
same,TGI,MDA-MB-468 breast,25.5 µM
same,GI50,SNB-19 CNS,> 32.5 µM
same,TGI,SNB-19 CNS,> 32.5 µM
same,GI50,SF-539 CNS,6.37 µM
same,TGI,SF-539 CNS,14.5 µM
same,GI50,TK-10 renal,> 32.5 µM
same,TGI,TK-10 renal,> 32.5 µM
same,GI50,OVCAR-4 ovarian,25.6 µM
same,TGI,OVCAR-4 ovarian,> 32.5 µM
same,GI50,786-0 renal,9.11 µM
same,TGI,786-0 renal,29.5 µM
same,GI50,HCT-116 colon,8.36 µM
same,TGI,HCT-116 colon,> 32.5 µM
same,GI50,SK-MEL-2 melanoma,6.15 µM
same,TGI,SK-MEL-2 melanoma,14.4 µM
same,GI50,MDA-MB-435,9.91 µM
same,TGI,MDA-MB-435,> 32.5 µM
same,GI50,OVCAR-8 ovarian,6.14 µM
same,TGI,OVCAR-8 ovarian,20.2 µM
same,GI50,K-562 leukemia,8.4 µM
same,TGI,K-562 leukemia,> 32.5 µM
same,GI50,U251 CNS,9.01 µM
same,TGI,U251 CNS,> 32.5 µM
same,GI50,EKVX NSCLC,10.6 µM
same,TGI,EKVX NSCLC,> 32.5 µM
same,GI50,DU-145 prostate,11.6 µM
same,TGI,DU-145 prostate,> 32.5 µM
same,GI50,HOP-92 NSCLC,5.05 µM
same,TGI,HOP-92 NSCLC,20.4 µM
same,GI50,M14 melanoma,12.6 µM
same,TGI,M14 melanoma,> 32.5 µM
same,GI50,RXF 393 renal,2.55 µM
same,TGI,RXF 393 renal,21.1 µM
same,GI50,SK-MEL-28 melanoma,> 32.5 µM
same,TGI,SK-MEL-28 melanoma,> 32.5 µM
same,GI50,SK-MEL-5 melanoma,11.3 µM
same,TGI,SK-MEL-5 melanoma,> 32.5 µM
same,GI50,T-47D breast,5.88 µM
same,TGI,T-47D breast,> 32.5 µM
same,GI50,SF-268 CNS,12.2 µM
same,TGI,SF-268 CNS,> 32.5 µM
same,GI50,HS 578T breast,7.04 µM
same,TGI,HS 578T breast,> 32.5 µM
same,GI50,UO-31 renal,14 µM
same,TGI,UO-31 renal,> 32.5 µM
same,GI50,MOLT-4 leukemia,8.41 µM
same,TGI,MOLT-4 leukemia,> 32.5 µM
same,GI50,A549 NSCLC,20 µM
same,TGI,A549 NSCLC,> 32.5 µM
same,GI50,HL-60(TB) leukemia,5.19 µM
same,TGI,HL-60(TB) leukemia,32.3 µM
same,GI50,OVCAR-3 ovarian,6.21 µM
same,TGI,OVCAR-3 ovarian,> 32.5 µM
same,GI50,ACHN renal,16.4 µM
same,TGI,ACHN renal,> 32.5 µM
same,GI50,HCC-2998 colon,11.9 µM
same,TGI,HCC-2998 colon,> 32.5 µM
same,GI50,RPMI-8226 leukemia,5.61 µM
same,TGI,RPMI-8226 leukemia,32.3 µM
same,GI50,KM12 colon,11.2 µM
same,TGI,KM12 colon,> 32.5 µM
same,GI50,COLO 205 colon,> 32.5 µM
same,TGI,COLO 205 colon,> 32.5 µM
same,GI50,OVCAR-5 ovarian,> 32.5 µM
same,TGI,OVCAR-5 ovarian,> 32.5 µM
same,GI50,HT29 colon,6.62 µM
same,TGI,HT29 colon,22.9 µM
same,GI50,BT-549 breast,5.22 µM
same,TGI,BT-549 breast,20 µM
same,GI50,PC-3 prostate,12.2 µM
same,TGI,PC-3 prostate,> 32.5 µM
same,GI50,MALME-3M melanoma,13.3 µM
same,TGI,MALME-3M melanoma,> 32.5 µM
same,GI50,NCI-H226 lung,16.6 µM
same,TGI,NCI-H226 lung,> 32.5 µM
same,GI50,A498 renal,> 32.5 µM
same,TGI,A498 renal,> 32.5 µM
same,GI50,SF-295 CNS,12.6 µM
same,TGI,SF-295 CNS,> 32.5 µM

# Source: PubChem BioAssay (NCI)
